According to US20140271926A1, “METHODS OF USE OF GLUTAMINE SYNTHETASE INHIBITORS” (CALIFORNIA INSTITUTE OF TECHNOLOGY, priority 2013, published 2014):
Residues, ends and D or L forms follow the SMILES beside them. *: point of attachment. Cbz = O=C(OCc1ccccc1)*

Experiments:
[1] = test system: glutamine synthetase (GS); assay: Western blot of endogenous GS level in MM.1S cells; type: cell-based, human; details: for steady-state level of GS: MM.1S cells, 2 mM glutamine, FIG. 5
Protocol: The consequences of IMiD-enhanced ubiquitylation of GS on endogenous GS levels and stability in MM.1S cells were evaluated. […] The IMiD-triggered decline in GS protein was not due to a reduction in the mRNA level of GS (FIGS. 5 and 6). If IMiDs were added immediately after changing the growth medium, the suppression of GS was more profound, with a maximal effect seen at 0.1 μM pomalidomide (4-amino-thalidomide) (FIG. 7). […] To determine if IMiDs were affecting the stability of GS, cycloheximide chase experiments were performed. As known in the art, GS is an unstable protein (FIG. 9). […] The lenalidomide-induced downregulation of GS was blocked by the proteasome inhibitor MG132 (FIG. 11). Additionally, the lenalidomide-induced downregulation of GS was blunted upon depletion of CRBN by shRNA (FIG. 12).
Western blot analysis. […] After washing twice with ice-cold PBS, the cells were lysed in RIPA buffer (50 mM Tris-HCl, 150 mM NaCl, 1% Triton X-100, 1% Sodium deoxycholate, 0.1% SDS, [pH 7.5]) supplemented with complete protease inhibitor (Roche). Whole-cell protein extracts were prepared and quantified by the Bradford method (Bio-Rad, Hercules, Calif.). Equal amounts of protein (20-80 μg/lane) were electrophoretically separated on SDS-PAGE and transferred to a PVDF membrane. The membranes were blotted with indicated antibodies. Anti-rabbit or anti-mouse antibodies conjugated to horseradish peroxidase (Vector Labs) were used as secondary antibodies, and the signal was detected using a Super Signal West Pico Substrate kit (Fisher Scientific).

endogenous GS = assay: TUBE2 pull-down of ubiquitin conjugates, HEK293T cells; type: cell-based, human; details: 3 hours, FIG. 4; for GS ubiquitin conjugates: lenalidomide 30 μM or MG132 10 μM
Protocol: TUBE (Tandem Ubiquitin Binding Entities) Pull-down. […] The cells were lysed in immunoprecipitation buffer (10 mM Tris [pH 7.5], 150 mM NaCl, 1% Triton X-100) containing a protease inhibitor cocktail, MG132 and 10 mM N-ethylmaleimide (NEM, Sigma). Whole-cell protein extracts were incubated with 20 μl of TUBE2 agarose beads (Boston Biochem) for 2-4 hours with rotation at 4° C. Beads were washed 3-5 times with lysis buffer, and bound proteins were eluted in SDS sample buffer and subjected to Western blot analysis.

FlagGS = assay: In vivo ubiquitylation assay of FlagGS in HEK293T cells; type: cell-based, human; details: MG132 10 μM 3 hours, FIG. 13A
Excerpt: As mentioned above, GS is moderately unstable even in the absence of IMiDs. Specifically, seven lysine residues of GS are modified with ubiquitin in proteasome-inhibited cells, and modification of five of these sites is reduced upon inhibition of CRL activity with the NEDD8 conjugation inhibitor MLN4924. (Kim et al., 2011, Mol Cell., 44:325 and Emanuele et al., 2011, Cell, 147:459, the entire contents of both of which are herein incorporated by reference.) As such, the idea that the constitutive ubiquitylation and degradation of GS may be dependent on CRL4^CRBN was tested. In co-transfection assays, ^HAubiquitin was incorporated into ^FlagGS as determined by immunoprecipitation of ^FlagGS followed by immunoblotting with anti-HA (FIG. 13A). Additionally, ubiquitin-modified ^FlagGS accumulated in cells in which the proteasome was inhibited with the proteasome inhibitor MG132, but was almost entirely absent upon depletion of endogenous CRBN (depletion of CRBN was confirmed by immunoblot; FIG. 13B). […]
In vivo ubiquitylation assay. […] IP washing steps were performed using IP lysis buffer supplemented with 0.5 M NaCl Immunoprecipitated proteins were resolved by SDS/PAGE and analyzed by immunoblotting.

GS = details: five of seven ubiquitin-modified lysine sites; proteasome-inhibited cells; cited from earlier work
[2] = clinical; cited from earlier work
MM.1S cells = assay: Immunoblot of apoptosis biomarkers (cleaved caspase-3, PARP) in MM.1S cells; type: cell-based, human; details: low concentrations of pomalidomide; 0.5 mM glutamine 72 hours; FIG. 26
Protocol: Since the physiological concentration of glutamine in human plasma is 0.5 mM (not the 2 mM that is typically used in cell cultures), the impact of GS depletion on cells grown in 0.5 mM glutamine was evaluated. Cells transduced with GS shRNA-3 in 2 mM glutamine for 7 days and then the cells were shifted to 0.5 mM glutamine.
If IMiDs modulate the level of multiple proteins that are critical for proliferation of myeloma cells, then restoring any one protein would not be expected to allow proliferation in the presence of IMiDs. By contrast, it was reasoned that if degradation of GS contributes to the anti-myeloma effect of IMiDs, that reduction of GS levels by shRNA knockdown would enhance the effect of IMiDs at sub-saturating concentrations, resulting in enhanced efficacy. […]
Western blot analysis. […] Whole-cell protein extracts were prepared and quantified by the Bradford method (Bio-Rad, Hercules, Calif.). […] Anti-rabbit or anti-mouse antibodies conjugated to horseradish peroxidase (Vector Labs) were used as secondary antibodies, and the signal was detected using a Super Signal West Pico Substrate kit (Fisher Scientific).

## Nc1ccc2c(c1)C(=O)N(C1CCC(=O)NC1=O)C2=O (stereo not shown) [5-amino-thalidomide]
[1]; MM.1S, FIG. 7
  effect on GS protein levels: no effect

## CC(C)C[C@@H](C=O)NC(=O)[C@H](CC(C)C)NC(=O)[C@H](CC(C)C)NC(=O)OCc1ccccc1 [MG132] (Cbz-Leu-Leu-Leu-aldehyde)
Endogenous GS
  GS ubiquitin conjugates: increase
[1]; MM.1S, 0.5 μM MG132, 100 μM lenalidomide, FIG. 11
  lenalidomide-induced downregulation of GS in presence of proteasome inhibitor: blocked
FlagGS
  ubiquitin-modified FlagGS: accumulated

## NS(=O)(=O)OC[C@@H]1C[C@@H](n2ccc3c(N[C@H]4CCc5ccccc54)ncnc32)C[C@@H]1O [MLN4924]
GS
  ubiquitin modification of GS lysine residues: reduced

## Nc1cccc2c1CN(C1CCC(=O)NC1=O)C2=O (stereo not shown) [lenalidomide]
Endogenous GS; 30 μM
  total cellular pool of ubiquitin conjugates: essentially no effect
Endogenous GS
  GS ubiquitin conjugates: increase
[1]; 24 hours
  steady-state level of GS: marked, dose-dependent reduction
[1]; MM.1S, 100 μM lenalidomide, FIG. 8
  time to substantial reduction of GS: ≤ 4 h
[1]; MM.1S, 24 hours, FIG. 12
  lenalidomide-induced downregulation of GS upon depletion of CRBN by shRNA: blunted
[2]
  Cmax: ~1500 nM

## Nc1cccc2c1C(=O)N(C1CCC(=O)NC1=O)C2=O (stereo not shown) [pomalidomide, 4-amino-thalidomide]
[1]; 24 hours
  steady-state level of GS: marked, dose-dependent reduction
[1]; MM.1S, IMiDs added immediately after changing the growth medium, FIG. 7
  concentration giving maximal suppression of GS: 0.1 µM
MM.1S cells
  PARP cleavage in GS-depleted cells: further accentuated
  PARP cleavage in non-depleted cells: no effect
[2]
  Cmax: ~275 nM
